This experiment concerns P388 leukemia ip, CD2F1 mice, survival T/C. Nature of the experiment: NCI In Vivo Anticancer Drug Screen. Data for tumor model P388 Leukemia (intraperitoneal) in CD2F1 (CDF1) mice. The note with it: endpoint: median survival time, higher = longer survival. In outline: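 Mice carrying the transplanted tumor received test compound or vehicle. Survival was recorded in each group, and the value is the treated-group measurement divided by that of the vehicle-treated control group.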

[1] abbreviates: dose: 50.0 mg/kg/injection, schedule: Q01DX009 (ip), vehicle: saline with Tween-80.
Setting [2] is: dose: 100.0 mg/kg/injection, schedule: Q01DX009 (ip), vehicle: saline with Tween-80.
Where [3] appears, read: dose: 6.25 mg/kg/injection, schedule: Q01DX009 (ip), vehicle: saline with Tween-80.
Setting [4] is: dose: 12.5 mg/kg/injection, schedule: Q01DX009 (ip), vehicle: saline with Tween-80.
Where [5] appears, read: dose: 6.25 mg/kg/injection, schedule: Q01DX005 (ip), vehicle: Klucel (hydroxypropylcellulose) (HPC).
The mark [6] stands for this setting: dose: 25.0 mg/kg/injection, schedule: Q01DX005 (ip), vehicle: Klucel (hydroxypropylcellulose) (HPC).

Several values for one entry are separate records, joined by “and”; a condition that tells them apart may be missing. Equal values may be shown once. Toxic doses and inconclusive results are not listed.

Turning to `O=NNc1cncc2ccccc12`, the T/C is, setting by setting: (dose: 1.56 mg/kg/injection, schedule: Q01DX009 (ip), vehicle: water) 100 % of control; (dose: 3.12 mg/kg/injection, schedule: Q01DX009 (ip), vehicle: water) 94 % of control; (dose: 6.0 mg/kg/injection, schedule: Q01DX008 (ip), vehicle: water) 102 % of control; (dose: 6.25 mg/kg/injection, schedule: Q01DX009 (ip), vehicle: water) 94 % of control; (dose: 12.5 mg/kg/injection, schedule: Q01DX008 (ip), vehicle: water) 113 % of control; (dose: 12.5 mg/kg/injection, schedule: Q01DX009 (ip), vehicle: water) 104 % of control. In addition, the T/C runs as follows: (dose: 25.0 mg/kg/injection, schedule: Q01DX008 (ip), vehicle: water) 111 % of control; (dose: 25.0 mg/kg/injection, schedule: Q01DX009 (ip), vehicle: water) 115 % of control; (dose: 50.0 mg/kg/injection, schedule: Q01DX008 (ip), vehicle: water) 116 % of control.
Consider `Fc1cccc(C(Nc2nncs2)Nc2nncs2)c1F`, for which the T/C runs as follows: (dose: 50.0 mg/kg/injection, schedule: Q01DX005 (ip), vehicle: saline with Tween-80) 99 % of control; (dose: 100.0 mg/kg/injection, schedule: Q01DX005 (ip), vehicle: saline with Tween-80) 93 % of control; (dose: 200.0 mg/kg/injection, schedule: Q01DX005 (ip), vehicle: saline with Tween-80) 93 % of control.
Turning to `O=S1(=O)C(c2cccc(C(F)(F)F)c2)=C(O)c2cc3ccccc3nc21`, the T/C was 105 % of control (dose: 6.25 mg/kg/injection, schedule: Q01DX009 (ip), vehicle: saline + Tween-80 + alcohol); 105 % of control (dose: 12.5 mg/kg/injection, schedule: Q01DX009 (ip), vehicle: saline + Tween-80 + alcohol); 100 % of control and 87 % of control (dose: 25.0 mg/kg/injection, schedule: Q01DX009 (ip), vehicle: saline + Tween-80 + alcohol); 99 % of control (dose: 50.0 mg/kg/injection, schedule: Q01DX009 (ip), vehicle: saline + Tween-80 + alcohol); 99 % of control (dose: 100.0 mg/kg/injection, schedule: Q01DX009 (ip), vehicle: saline + Tween-80 + alcohol).
In the case of `CC(C)(C)N=C(CCC(C#N)(C#N)CCC(=NC(C)(C)C)Nc1c(Cl)cccc1Cl)Nc1c(Cl)cccc1Cl`, the T/C was 99 % of control under setting [1]; 92 % of control under setting [2]; 92 % of control (dose: 200.0 mg/kg/injection, schedule: Q01DX009 (ip), vehicle: saline with Tween-80).
On to `[O-]c1ccccc1C=NCCN1CC1.[O-]c1ccccc1C=NCCN1CC1.[Zn+2]`, for which the T/C is, setting by setting: under setting [3], 91 % of control; under setting [4], 97 % of control; (dose: 25.0 mg/kg/injection, schedule: Q01DX009 (ip), vehicle: saline with Tween-80) 100 % of control.
In the case of `O=c1[nH]nc(/C=C/C=C/c2ccccc2)c(=O)[nH]1`, the T/C (dose: 100.0 mg/kg/injection, schedule: Q01DX001 (ip), vehicle: saline) is 97 % of control; the T/C (dose: 200.0 mg/kg/injection, schedule: Q01DX001 (ip), vehicle: saline) is 101 % of control; the T/C (dose: 400.0 mg/kg/injection, schedule: Q01DX001 (ip), vehicle: saline) is 90 % of control.
For the compound `Nc1nc([Se])c2ncn(C3OC(CO)C(O)C3O)c2n1` (configuration not stated), the T/C is 150 % of control and 157 % of control (dose: 4.0 mg/kg/injection, schedule: Q01DX009 (ip), vehicle: saline); 159 % of control (dose: 6.25 mg/kg/injection, schedule: Q01DX009 (ip), vehicle: saline); 164 % of control and 179 % of control (dose: 8.0 mg/kg/injection, schedule: Q01DX009 (ip), vehicle: saline); 157 % of control (dose: 8.0 mg/kg/injection, schedule: Q01DX009 (ip), vehicle: water); 183 % of control (dose: 12.5 mg/kg/injection, schedule: Q01DX009 (ip), vehicle: saline); 157 % of control and 198 % of control and 202 % of control (dose: 16.0 mg/kg/injection, schedule: Q01DX009 (ip), vehicle: saline). In addition, the T/C is 160 % of control and 161 % of control (dose: 16.0 mg/kg/injection, schedule: Q01DX009 (ip), vehicle: water); 186 % of control (dose: 25.0 mg/kg/injection, schedule: Q01DX009 (ip), vehicle: saline); 121 % of control and 247 % of control and 98 % of control (dose: 32.0 mg/kg/injection, schedule: Q01DX009 (ip), vehicle: saline); 190 % of control and 191 % of control (dose: 32.0 mg/kg/injection, schedule: Q01DX009 (ip), vehicle: water); 96 % of control (dose: 50.0 mg/kg/injection, schedule: Q01DX009 (ip), vehicle: saline).
On to `N#CCC1CCCC1=O` (configuration not stated), for which the T/C by setting is: under setting [1], 103 % of control; under setting [2], 99 % of control.
With `COC(=O)/C=C(\I)C(=O)OC`, the T/C is 104 % of control (dose: 3.13 mg/kg/injection, schedule: Q01DX009 (ip), vehicle: saline with Tween-80); 101 % of control under setting [3]; 92 % of control under setting [4].
Turning to `O=c1c2ccc(Cl)cc2nc2n1OCC2`, the T/C was 106 % of control (dose: 100.0 mg/kg/injection, schedule: Q01DX001 (ip), vehicle: Klucel (hydroxypropylcellulose) (HPC)); 100 % of control (dose: 200.0 mg/kg/injection, schedule: Q01DX001 (ip), vehicle: Klucel (hydroxypropylcellulose) (HPC)); 101 % of control (dose: 400.0 mg/kg/injection, schedule: Q01DX001 (ip), vehicle: Klucel (hydroxypropylcellulose) (HPC)).
In the case of `CSc1nc(SC)c2nc(SC)sc2n1`, the T/C reads like this: (dose: 50.0 mg/kg/injection, schedule: Q01DX001 (ip), vehicle: saline with Tween-80) 90 % of control; (dose: 100.0 mg/kg/injection, schedule: Q01DX001 (ip), vehicle: saline with Tween-80) 88 % of control and 90 % of control; (dose: 200.0 mg/kg/injection, schedule: Q01DX001 (ip), vehicle: saline with Tween-80) 90 % of control; (dose: 400.0 mg/kg/injection, schedule: Q01DX001 (ip), vehicle: saline with Tween-80) 87 % of control.
As for `CCOC(=O)C1CC1(C(=O)OCC)C(=O)OCC` (configuration not stated), the T/C by setting is: (dose: 100.0 mg/kg/injection, schedule: Q04DX003 (ip), vehicle: saline with Tween-80) 96 % of control; (dose: 200.0 mg/kg/injection, schedule: Q04DX003 (ip), vehicle: saline with Tween-80) 97 % of control; (dose: 400.0 mg/kg/injection, schedule: Q04DX003 (ip), vehicle: saline with Tween-80) 92 % of control.
On to `C(=C\c1ccc2cc(C3=NCCN3)[nH]c2c1)/c1ccc(Oc2ccc(C3=NCCN3)cc2)cc1` (tested in a mixture with another compound), for which the T/C under setting [5] was 111 % of control; the T/C (dose: 12.5 mg/kg/injection, schedule: Q01DX005 (ip), vehicle: Klucel (hydroxypropylcellulose) (HPC)) was 97 % of control; the T/C under setting [6] was 100 % of control.
As to `O=C1c2sccc2[C@H](NC(=O)C(F)(F)F)[C@@H]1Cl`, the T/C (dose: 60.0 mg/kg/injection, schedule: Q01DX005 (ip), vehicle: saline with Tween-80) is 100 % of control; the T/C (dose: 120.0 mg/kg/injection, schedule: Q01DX005 (ip), vehicle: saline with Tween-80) is 100 % of control; the T/C (dose: 240.0 mg/kg/injection, schedule: Q01DX005 (ip), vehicle: saline with Tween-80) was 100 % of control.
As to `COc1ccc(NC(=O)N(C)C)cc1OC`, the T/C runs as follows: (dose: 100.0 mg/kg/injection, schedule: Q04DX003 (ip), vehicle: saline) 101 % of control; (dose: 200.0 mg/kg/injection, schedule: Q04DX003 (ip), vehicle: saline) 107 % of control; (dose: 400.0 mg/kg/injection, schedule: Q04DX003 (ip), vehicle: saline) 105 % of control.
As to `CCC(=O)Nc1nnc(SCCCCCCSc2nnc(NC(=O)CC)s2)s1`, the T/C (dose: 50.0 mg/kg/injection, schedule: Q01DX005 (ip), vehicle: Klucel (hydroxypropylcellulose) (HPC)) is 90 % of control; the T/C (dose: 100.0 mg/kg/injection, schedule: Q01DX005 (ip), vehicle: Klucel (hydroxypropylcellulose) (HPC)) was 88 % of control; the T/C (dose: 200.0 mg/kg/injection, schedule: Q01DX005 (ip), vehicle: Klucel (hydroxypropylcellulose) (HPC)) is 91 % of control.
With `O=[N+]([O-])c1ccccc1NN=NCCCl`, the T/C reads like this: (dose: 3.12 mg/kg/injection, schedule: Q01DX005 (ip), vehicle: Klucel (hydroxypropylcellulose) (HPC)) 112 % of control; under setting [5], 120 % of control; under setting [6], 120 % of control.

(Values after PubChem BioAssay AID330 (DTP/NCI, 2004).)
